# “And” between values parts separate entries of the source, which are not always exact repeats. Equal entries are not always repeated.
# How the values were obtained:
# [1] = system: SPAK pSer373; assay: Choroid plexus SPAK/OSR1 immunoblot in rat post-hemorrhagic hydrocephalus (IVH) model; type: in vivo
# [2] = system: KCC4 pThr926/pThr980; assay: Choroid plexus KCC4 phospho-IP/immunoblot in rat IVH model; type: in vivo
# [3] = system: mouse primary cortical neurons; assay: Cell volume measurement (calcein-AM) under hyperosmotic stress, primary cortical neurons
# [4] = rat CPe 48 h post IVH + 1a, replicates
smiles,measurement,setting,value
"Cc1cc(C(C#N)c2ccc(Cl)cc2)c(Cl)cc1NC(=O)c1cc(Cl)ccc1O (stereo not drawn) [ZT-1a, 5-chloro-N-(5-chloro-4-((4-chlorophenyl)(cyano)methyl)-2-methylphenyl)-2-hydroxybenzamide]",SPAK / Actin,[1]; [4],2.39 and 2.21 and 2.2 and 2.51 and 2.16 and 2.37
same,SPAK pSer373 / Actin,[1]; [4],0.69 and 0.85 and 1.13 and 0.73 and 0.89 and 1.07
same,reduction of IVH-induced expression of pSPAK in CPe,"[1]; rat, ICV ZT-1a, 48 h post IVH, n = 3",55 ± 3.6%
same,KCC4 / Actin,[2]; [4],2.09 and 2.11 and 2.1 and 2.05 and 2.15 and 2.12
same,KCC4 pThr926 / Actin,[2]; [4],0.241 and 0.354 and 0.43 and 0.261 and 0.376 and 0.487
same,KCC4 pThr980 / Actin,[2]; [4],0.279 and 0.426 and 0.524 and 0.299 and 0.447 and 0.541
same,reduction of post-IVH KCC4 phosphorylation at Thr926/Thr980,"[2]; rat CPe, ICV ZT-1a",~ 2 fold
same,Cell water (relative change),"[3]; Fig 5b trace, Time 1.00403",1.0915 relative change
same,Cell water (relative change),"[3]; Fig 5b trace, Time 2.00427",1.001 relative change
same,Cell water (relative change),"[3]; Fig 5b trace, Time 3.00425",0.9646 relative change
same,Cell water (relative change),"[3]; Fig 5b trace, Time 4.00423",0.9689 relative change
same,Cell water (relative change),"[3]; Fig 5b trace, Time 5.0042",0.9837 relative change
same,Cell water (relative change),"[3]; Fig 5b trace, Time 6.00445",0.7025 relative change
same,Cell water (relative change),"[3]; Fig 5b trace, Time 7.00442",0.636 relative change
same,Cell water (relative change),"[3]; Fig 5b trace, Time 8.00435",0.6336 relative change
same,Cell water (relative change),"[3]; Fig 5b trace, Time 9.00452",0.5971 relative change
same,Cell water (relative change),"[3]; Fig 5b trace, Time 10.0046",0.5748 relative change
same,Cell water (relative change),"[3]; Fig 5b trace, Time 11.0045",0.5229 relative change
same,Cell water (relative change),"[3]; Fig 5b trace, Time 12.0045",0.4882 relative change
same,Cell water (relative change),"[3]; Fig 5b trace, Time 13.0045",0.4496 relative change
same,Cell water (relative change),"[3]; Fig 5b trace, Time 14.0045",0.4313 relative change
same,Cell water (relative change),"[3]; Fig 5b trace, Time 15.0047",0.4596 relative change
same,Cell water (relative change),"[3]; Fig 5b trace, Time 16.0047",0.433 relative change
same,Cell water (relative change),"[3]; Fig 5b trace, Time 17.0047",0.4137 relative change
same,Cell water (relative change),"[3]; Fig 5b trace, Time 18.0047",0.4143 relative change
same,Cell water (relative change),"[3]; Fig 5b trace, Time 19.0049",0.386 relative change
same,Cell water (relative change),"[3]; Fig 5b trace, Time 20.0049",0.3846 relative change
same,Cell water (relative change),"[3]; Fig 5b trace, Time 21.0048",0.3598 relative change
same,Cell water (relative change),"[3]; Fig 5b trace, Time 22.0048",0.3067 relative change
same,Cell water (relative change),"[3]; Fig 5b trace, Time 23.005",0.3082 relative change
same,Cell water (relative change),"[3]; Fig 5b trace, Time 24.0048",0.3082 relative change
same,Cell water (relative change),"[3]; Fig 5b trace, Time 25.005",0.2995 relative change
same,Cell water (relative change),"[3]; Fig 5b trace, Time 26.0053",0.543 relative change
same,Cell water (relative change),"[3]; Fig 5b trace, Time 27.005",0.6295 relative change
same,Cell water (relative change),"[3]; Fig 5b trace, Time 28.005",0.7317 relative change
same,Cell water (relative change),"[3]; Fig 5b trace, Time 29.0051",0.8403 relative change
same,Cell water (relative change),"[3]; Fig 5b trace, Time 30.005",0.9491 relative change
same,Cell water (relative change),"[3]; Fig 5b trace, Time 31.005",1.001 relative change
same,Cell water (relative change),"[3]; Fig 5b trace, Time 32.005",1.095 relative change
same,Cell water (relative change),"[3]; Fig 5b trace, Time 33.0052",1.18 relative change
same,Cell water (relative change),"[3]; Fig 5b trace, Time 34.0052",1.2174 relative change
same,Cell water (relative change),"[3]; Fig 5b trace, Time 35.0052",1.246 relative change
same,Cell water (relative change),[3]; Time 1.0036,0.9411
same,Cell water (relative change),[3]; Time 2.0038,0.9678
same,Cell water (relative change),[3]; Time 3.0038,0.9873
same,Cell water (relative change),[3]; Time 4.0037,1.0365
same,Cell water (relative change),[3]; Time 5.0037,1.0673
same,Cell water (relative change),[3]; Time 6.0037,0.3755
same,Cell water (relative change),[3]; Time 7.0039,0.3590
same,Cell water (relative change),[3]; Time 8.0040,0.3612
same,Cell water (relative change),[3]; Time 9.0042,0.3419
same,Cell water (relative change),[3]; Time 10.0039,0.3164
same,Cell water (relative change),[3]; Time 11.0039,0.3660
same,Cell water (relative change),[3]; Time 12.0039,0.3218
same,Cell water (relative change),[3]; Time 13.0041,0.3220
same,Cell water (relative change),[3]; Time 14.0041,0.3646
same,Cell water (relative change),[3]; Time 15.0040,0.4243
same,Cell water (relative change),[3]; Time 16.0040,0.3424
same,Cell water (relative change),[3]; Time 17.0040,0.4003
same,Cell water (relative change),[3]; Time 18.0045,0.3516
same,Cell water (relative change),[3]; Time 19.0042,0.3431
same,Cell water (relative change),[3]; Time 20.0042,0.3283
same,Cell water (relative change),[3]; Time 21.0042,0.3207
same,Cell water (relative change),[3]; Time 22.0041,0.3314
same,Cell water (relative change),[3]; Time 23.0044,0.2994
same,Cell water (relative change),[3]; Time 24.0044,0.3371
same,Cell water (relative change),[3]; Time 25.0043,0.3486
same,Cell water (relative change),[3]; Time 26.0043,0.4588
same,Cell water (relative change),[3]; Time 27.0043,0.5973
same,Cell water (relative change),[3]; Time 28.0045,0.7262
same,Cell water (relative change),[3]; Time 29.0044,0.8045
same,Cell water (relative change),[3]; Time 30.0044,0.9325
same,Cell water (relative change),[3]; Time 31.0046,1.0105
same,Cell water (relative change),[3]; Time 32.0046,1.1112
same,Cell water (relative change),[3]; Time 33.0046,1.1274
same,Cell water (relative change),[3]; Time 34.0045,1.2089
same,Cell water (relative change),[3]; Time 35.0045,1.2137
same,regulatory volume increase (RVI) response of primary cortical neurons,"[3]; hyperosmotic stress 370 mOsm, ZT-1a 3 μM, BMT 10 μM",no RVI response
same,cell shrinkage of primary cortical neurons,"[3]; hypertonic 370 mOsm/kg H2O, earlier manuscript version quoted in peer-review file",87%
same,initial rate of cell shrinkage,"[3]; hypertonic stress, earlier manuscript version quoted in peer-review file",29 ± 9 % vol/min
same,neurons exhibiting RVI / cells analysed,"[3]; hypertonicity-mediated osmotic shrinkage, three cultures",0/49
